Data reported in US20060281071A1, “Stearoyl-CoA desaturase assay” (priority 2005, published 2006).
Where “and” joins values, the source holds several entries; their conditions need not be identical. Identical values can stand only once. Like-named read-outs stand apart in the source and are kept apart here.

Legend:
mSCD3 = target: T1, mSCD3 (Mus musculus, UniProt Q99PL7, V119A); assay: Conversion of saturated fatty acids to Δ9 monounsaturated fatty acids in ole1 yeast L8-14C expressing mSCD3 (GLC); assay type: cell-based; set-up: Cloning of the full-length human and mouse SCD cDNAs: The full coding region of human SCDs; expressed in transfected cells; host or cells: Saccharomyces cerevisiae L8-14C (ole1 disruptant), vector p426GPD
T1 sequence (Q99PL7 1-359 V119A): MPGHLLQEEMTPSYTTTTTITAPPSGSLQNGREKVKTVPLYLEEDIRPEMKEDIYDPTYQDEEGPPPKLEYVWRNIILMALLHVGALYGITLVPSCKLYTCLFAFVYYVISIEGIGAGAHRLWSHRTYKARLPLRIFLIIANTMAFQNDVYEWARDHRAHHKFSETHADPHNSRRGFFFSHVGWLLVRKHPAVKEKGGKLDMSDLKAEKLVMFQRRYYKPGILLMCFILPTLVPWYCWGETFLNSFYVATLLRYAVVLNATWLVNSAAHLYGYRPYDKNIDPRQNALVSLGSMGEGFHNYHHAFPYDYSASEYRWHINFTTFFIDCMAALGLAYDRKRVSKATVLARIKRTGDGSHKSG

hSCD5 = target: T2, hSCD5 (Homo sapiens, UniProt Q86SK9); assay: Conversion of saturated fatty acids to Δ9 monounsaturated fatty acids in ole1 yeast L8-14C expressing hSCD5 (GLC); assay type: cell-based; set-up: Cloning of the full-length human and mouse SCD cDNAs: The full coding region of human SCDs; expressed in transfected cells; host or cells: Saccharomyces cerevisiae L8-14C (ole1 disruptant), vector p426GPD; conditions: for % conversion of fatty acid to Δ9 monounsaturated fatty acid: endogenous fatty acid, L8-14C transformant, YPD lacking unsaturated fatty acids, 3 days
T2 sequence (Q86SK9 1-330): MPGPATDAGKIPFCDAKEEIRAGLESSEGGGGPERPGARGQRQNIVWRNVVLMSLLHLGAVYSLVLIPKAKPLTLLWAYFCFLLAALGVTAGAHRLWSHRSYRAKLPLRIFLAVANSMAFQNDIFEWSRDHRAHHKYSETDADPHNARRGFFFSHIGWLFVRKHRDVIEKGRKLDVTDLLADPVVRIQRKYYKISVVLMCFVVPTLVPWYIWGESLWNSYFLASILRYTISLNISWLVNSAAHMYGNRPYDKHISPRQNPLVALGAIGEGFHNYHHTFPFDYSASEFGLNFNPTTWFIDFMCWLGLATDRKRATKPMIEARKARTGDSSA
Excerpt: (§1) Functional Analysis: The p426GPD constructs harboring either human or mouse SCDs were transformed into Saccharomyces cerevisiae strain L8-14C (provided by Professor Charles Martin, Division of Life Sciences, Department of Cell Biology and Neuroscience, Rutgers University, Nelson Laboratories), which contains a disruption of the yeast Δ9-desaturase gene ole1 and requires unsaturated fatty acids for growth (Stukey, J. E. et al. (1990) J Biol Chem 265, 20144-20149), by using a Lithium acetate standard methods (Elble, R. (1992) Biotechniques 13, 18-20). The transformed yeast cells were plated onto a synthetic dextrose medium containing 1% tergitol NP-40, 0.5 mM oleic acid, and 0.5 mM palmitoleic acid but lacking uracil. To test the genetic complementation of the mutant yeast strain, transformed yeast cells were plated onto YPD (Yeast Extract/Peptone/Dextrose) medium lacking unsaturated fatty acids. Plates were incubated at 30° C. for 3 days.
(§2) Fatty acid analysis: Yeast cells were grown in liquid YPD medium lacking unsaturated fatty acids for 3 days. Cells were pelleted and washed twice with water, followed by suspension in 0.5 ml of 2M NaOH in methanol. The mixture was then heated to 80° C. for 1 h and acidified with formic acid. Fatty acids were extracted according to Bligh & Dyer's method and trans-methylated with 1 ml of 14% BF3 in methanol (Sigma). The resulting fatty acid methyl esters were extracted with hexane and analyzed by gas-liquid chromatography (GLC) (Miyazaki, M. et al. (2001) J Biol Chem 276, 39455-39461; and Elble, R. (1992) Biotechniques 13, 18-20). The double bond positions of the monounsaturated fatty acid pyrrolidide derivatives were analyzed by tandem GC-MS as described in Miyazaki, M. et al. (2002) J Lipid Res 43, 2146-2154, incorporated by reference in its entirety. Exogenous saturated fatty acids (0.2 mM) were added into YPD in presence of 1% Tergitol NP-40 (Sigma).

mSCD1 = target: T3, mSCD1 (Mus musculus, UniProt P13516); assay: Conversion of saturated fatty acids to Δ9 monounsaturated fatty acids in ole1 yeast L8-14C expressing mSCD1 (GLC); assay type: cell-based; set-up: Cloning of the full-length human and mouse SCD cDNAs: The full coding region of human SCDs; expressed in transfected cells; host or cells: Saccharomyces cerevisiae L8-14C (ole1 disruptant), vector p426GPD; conditions: for conversion of exogenous saturated fatty acid to Δ9 monounsaturated fatty acid: exogenous fatty acid 0.2 mM, 1% tergitol NP-40, yeast cultured 2 days (FIG. 2); for % conversion of fatty acid to Δ9 monounsaturated fatty acid: endogenous fatty acid, L8-14C transformant, YPD lacking unsaturated fatty acids, 3 days
T3 sequence (P13516 1-355): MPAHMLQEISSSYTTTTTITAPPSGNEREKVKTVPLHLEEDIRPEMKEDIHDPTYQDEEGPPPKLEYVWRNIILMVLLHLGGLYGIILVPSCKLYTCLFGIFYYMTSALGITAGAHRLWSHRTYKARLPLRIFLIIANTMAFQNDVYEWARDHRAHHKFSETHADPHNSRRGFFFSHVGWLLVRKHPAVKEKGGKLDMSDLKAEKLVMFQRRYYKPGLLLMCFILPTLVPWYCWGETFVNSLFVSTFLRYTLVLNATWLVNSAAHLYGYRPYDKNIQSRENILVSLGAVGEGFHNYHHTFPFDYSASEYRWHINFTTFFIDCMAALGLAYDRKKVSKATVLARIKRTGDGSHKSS

mSCD2 = target: T4, mSCD2 (Mus musculus, UniProt P13011); assay: Conversion of saturated fatty acids to Δ9 monounsaturated fatty acids in ole1 yeast L8-14C expressing mSCD2 (GLC); assay type: cell-based; set-up: Cloning of the full-length human and mouse SCD cDNAs: The full coding region of human SCDs; expressed in transfected cells; host or cells: Saccharomyces cerevisiae L8-14C (ole1 disruptant), vector p426GPD; conditions: for conversion of exogenous saturated fatty acid to Δ9 monounsaturated fatty acid: exogenous fatty acid 0.2 mM, 1% tergitol NP-40, yeast cultured 2 days (FIG. 2); for % conversion of fatty acid to Δ9 monounsaturated fatty acid: endogenous fatty acid, L8-14C transformant, YPD lacking unsaturated fatty acids, 3 days
T4 sequence (P13011 1-358): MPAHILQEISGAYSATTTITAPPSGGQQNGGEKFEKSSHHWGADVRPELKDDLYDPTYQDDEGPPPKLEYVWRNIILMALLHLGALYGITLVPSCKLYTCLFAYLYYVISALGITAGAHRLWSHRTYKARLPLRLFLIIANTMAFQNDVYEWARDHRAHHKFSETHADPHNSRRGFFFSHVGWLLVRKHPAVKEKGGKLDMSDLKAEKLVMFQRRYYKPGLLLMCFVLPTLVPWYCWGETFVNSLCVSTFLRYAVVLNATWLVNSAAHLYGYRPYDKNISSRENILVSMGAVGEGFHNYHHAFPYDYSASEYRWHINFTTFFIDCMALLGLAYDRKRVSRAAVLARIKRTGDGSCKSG

hSCD1 = target: T5, hSCD1 (Homo sapiens, UniProt O00767); assay: Conversion of saturated fatty acids to Δ9 monounsaturated fatty acids in ole1 yeast L8-14C expressing hSCD1 (GLC); assay type: cell-based; set-up: Cloning of the full-length human and mouse SCD cDNAs: The full coding region of human SCDs; expressed in transfected cells; host or cells: Saccharomyces cerevisiae L8-14C (ole1 disruptant), vector p426GPD; conditions: for conversion of exogenous saturated fatty acid to Δ9 monounsaturated fatty acid: exogenous fatty acid 0.2 mM, 1% tergitol NP-40, yeast cultured 2 days (FIG. 2); for % conversion of fatty acid to Δ9 monounsaturated fatty acid: endogenous fatty acid, L8-14C transformant, YPD lacking unsaturated fatty acids, 3 days
T5 sequence (O00767 1-359): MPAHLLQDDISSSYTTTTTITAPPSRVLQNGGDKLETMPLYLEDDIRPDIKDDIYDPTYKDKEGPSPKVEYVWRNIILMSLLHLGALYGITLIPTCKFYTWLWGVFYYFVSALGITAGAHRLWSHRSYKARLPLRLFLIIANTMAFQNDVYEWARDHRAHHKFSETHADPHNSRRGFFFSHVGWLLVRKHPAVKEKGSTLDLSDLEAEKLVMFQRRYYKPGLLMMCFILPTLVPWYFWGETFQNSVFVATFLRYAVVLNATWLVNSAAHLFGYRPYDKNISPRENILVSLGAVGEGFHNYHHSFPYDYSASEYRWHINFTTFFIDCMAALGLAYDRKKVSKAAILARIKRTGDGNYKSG

mSCD4 = assay: Conversion of saturated fatty acids to Δ9 monounsaturated fatty acids in ole1 yeast L8-14C expressing mSCD4 (GLC); assay type: cell-based, mouse; conditions: for conversion of exogenous saturated fatty acid to Δ9 monounsaturated fatty acid: exogenous fatty acid 0.2 mM, 1% tergitol NP-40, yeast cultured 2 days (FIG. 2); for % conversion of fatty acid to Δ9 monounsaturated fatty acid: endogenous fatty acid, L8-14C transformant, YPD lacking unsaturated fatty acids, 3 days
Excerpt: as §1
as §2, with “Cells” for “Fatty acid analysis: Yeast cells were grown in liquid YPD medium lacking unsaturated fatty acids for 3 days. Cells”

[1] = exogenous fatty acid 0.2 mM, 1% tergitol NP-40, yeast cultured 2 days (FIG. 2)
[2] = yeast transformant, endogenous fatty acids

For `CCCCCCCCCCCC(=O)O` [12:0, lauric acid], the “conversion of exogenous saturated fatty acid to Δ9 monounsaturated fatty acid” value (mSCD3) was 14% and the “conversion of exogenous saturated fatty acid to Δ9 monounsaturated fatty acid” value (hSCD5) was “did not desaturate”.
With `CCCCCCCCCCCCC(=O)O` [13:0, tridecanoic acid] the “conversion of exogenous saturated fatty acid to Δ9 monounsaturated fatty acid” value (mSCD1) was 13%, the “conversion of exogenous saturated fatty acid to Δ9 monounsaturated fatty acid” value (mSCD2) was 14% and the “conversion of exogenous saturated fatty acid to Δ9 monounsaturated fatty acid” value (hSCD1) was 9%. For the same compound, the “conversion of exogenous saturated fatty acid to Δ9 monounsaturated fatty acid” value (hSCD5; [1]) was “did not desaturate”.
In the case of `CCCCCCCCCCCCCC(=O)O` [14:0, myristic acid], the “conversion of exogenous saturated fatty acid to Δ9 monounsaturated fatty acid” value (mSCD4) is reported as 2.9%, the “conversion of exogenous saturated fatty acid to Δ9 monounsaturated fatty acid” value (mSCD1) is reported as 11% and the “conversion of exogenous saturated fatty acid to Δ9 monounsaturated fatty acid” value (mSCD2) is reported as 14%. For the same compound, the “conversion of exogenous saturated fatty acid to Δ9 monounsaturated fatty acid” value (hSCD1) was 18% and the “conversion of exogenous saturated fatty acid to Δ9 monounsaturated fatty acid” value (hSCD5; [1]) was “less than 5%”.
`CCCCCCCCCCCCCCCC(=O)O` [16:0] was tested, and the “% conversion of fatty acid to Δ9 monounsaturated fatty acid” value (mSCD4) was 9.7%, the “% conversion of fatty acid to Δ9 monounsaturated fatty acid” value (mSCD1) was 36.4% and the “% conversion of fatty acid to Δ9 monounsaturated fatty acid” value (mSCD2) was 51.4%. The “% conversion of fatty acid to Δ9 monounsaturated fatty acid” value (hSCD1) was 43.8% and the “% conversion of fatty acid to Δ9 monounsaturated fatty acid” value (hSCD5) was 19.9%.
For `CCCCCCCCCCCCCCCCC(=O)O` [17:0, heptadecanoic acid], the “conversion of exogenous saturated fatty acid to Δ9 monounsaturated fatty acid” value (mSCD4) was 5.7%, the “conversion of exogenous saturated fatty acid to Δ9 monounsaturated fatty acid” value (mSCD1) was 43% and the “conversion of exogenous saturated fatty acid to Δ9 monounsaturated fatty acid” value (mSCD2) was 31%. For the same compound, the “conversion of exogenous saturated fatty acid to Δ9 monounsaturated fatty acid” value (hSCD1) was 35% and the “conversion of exogenous saturated fatty acid to Δ9 monounsaturated fatty acid” value (hSCD5; [1]) was 31%.
With `CCCCCCCCCCCCCCCCCC(=O)O` [18:0] the “% conversion of fatty acid to Δ9 monounsaturated fatty acid” value (mSCD4) was 16.8%, the “% conversion of fatty acid to Δ9 monounsaturated fatty acid” value (mSCD1) was 85% and 84.8% and the “% conversion of fatty acid to Δ9 monounsaturated fatty acid” value (mSCD2) was 77% and 77.3%. The “% conversion of fatty acid to Δ9 monounsaturated fatty acid” value (hSCD1) was 75.0%, the “conversion towards 18:0 relative to 16:0” value (hSCD1; [2]) was 1.7 fold and the “% conversion of fatty acid to Δ9 monounsaturated fatty acid” value (hSCD5) was 86.6%. The “conversion of 18:0 to 18:1Δ9 relative to that of 16:0” value (hSCD5; [2]) was “more than 4 fold”.
`CCCCCCCCCCCCCCCCCCCC(=O)O` [C20:0, eicosanoic acid] was tested, and the “conversion of exogenous saturated fatty acid to Δ9 monounsaturated fatty acid” value (mSCD4) was “None of Δ9-desaturase was able to utilize”, the “conversion of exogenous saturated fatty acid to Δ9 monounsaturated fatty acid” value (mSCD1) was “None of Δ9-desaturase was able to utilize” and the “conversion of exogenous saturated fatty acid to Δ9 monounsaturated fatty acid” value (mSCD2) was “None of Δ9-desaturase was able to utilize”. The “conversion of exogenous saturated fatty acid to Δ9 monounsaturated fatty acid” value (hSCD1) was “None of Δ9-desaturase was able to utilize” and the “conversion of exogenous saturated fatty acid to Δ9 monounsaturated fatty acid” value (hSCD5; [1]) was “None of Δ9-desaturase was able to utilize”.
